Test results: patent US9174952B2, “Substituted 3-thiazoloamino-propionic acid derivatives and their use as pharmaceuticals” (SANOFI, priority 2011, dated 2015)

Each compound was assayed against T1, Recombinant human cathepsin A (Homo sapiens, UniProt P10619) (assay: Cathepsin A inhibitory activity). Details: activated recombinant human cathepsin A 833 ng/ml, Bodipy FL-labeled bradykinin substrate 2 μM, pH 5.5, room temperature.
T1 construct: Recombinant human cathepsin A (residues 29-480, with a C-terminal 10-His tag); 10-His (C); purchased R&D Systems 1049-SE
T1 sequence (P10619 29-326 limits assumed): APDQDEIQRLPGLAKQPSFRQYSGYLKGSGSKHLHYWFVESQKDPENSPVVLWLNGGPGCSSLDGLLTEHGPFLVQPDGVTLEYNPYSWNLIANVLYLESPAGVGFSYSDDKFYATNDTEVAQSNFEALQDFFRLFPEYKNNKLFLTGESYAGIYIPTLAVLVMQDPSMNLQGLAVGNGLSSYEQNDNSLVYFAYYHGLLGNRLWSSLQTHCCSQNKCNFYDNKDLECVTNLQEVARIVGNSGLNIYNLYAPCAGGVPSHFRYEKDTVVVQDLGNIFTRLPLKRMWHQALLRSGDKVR
T1 sequence (P10619 327-480 limits assumed): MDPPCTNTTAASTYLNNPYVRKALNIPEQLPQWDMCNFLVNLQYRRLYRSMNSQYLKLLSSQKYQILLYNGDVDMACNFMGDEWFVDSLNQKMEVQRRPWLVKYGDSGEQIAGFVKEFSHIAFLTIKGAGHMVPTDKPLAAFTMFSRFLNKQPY
Format: biochemical
Outline: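 Enzyme (residues 29-480, C-terminal His tag) pre-activated by cathepsin L at 37° C, then quenched with E-64. Compound preincubated 15 min at room temperature in 25 mM MES pH 5.5 with 5 mM DTT, then 2 μM Bodipy FL-bradykinin added for 15 min at 833 ng/ml enzyme. Product/substrate separated by microfluidic capillary electrophoresis; IC50 from multi-concentration inhibition.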

SMILES | IC50 [µM]
O=C(O)CC(Cc1ccccc1)NC(=O)c1csc(-c2ccccc2Cl)n1 (centres unmarked) [Example 120, 3-{[2-(2-Chloro-phenyl)-thiazole-4-carbonyl]-amino}-4-phenyl-butyric acid] | 1.45
O=C(NCC(C(=O)O)c1ccccc1)c1csc(-c2ccccc2F)n1 (centres unmarked) [Example 121, 3-{[2-(2-Fluoro-phenyl)-thiazole-4-carbonyl]-amino}-2-phenyl-propionic acid] | 12.6
O=C(O)CC(Cc1ccccc1)NC(=O)c1csc(-c2ccccc2F)n1 (centres unmarked) [Example 122, 3-{[2-(2-Fluoro-phenyl)-thiazole-4-carbonyl]-amino}-4-phenyl-butyric acid] | 4.42
O=C(NCC(C(=O)O)c1ccccc1)c1csc(-c2cccc(Cl)c2)n1 (centres unmarked) [Example 123, 3-{[2-(3-Chloro-phenyl)-thiazole-4-carbonyl]-amino}-2-phenyl-propionic acid] | > 10
O=C(O)CC(Cc1ccccc1)NC(=O)c1csc(-c2cccc(Cl)c2)n1 (centres unmarked) [Example 125, 3-{[2-(3-Chloro-phenyl)-thiazole-4-carbonyl]-amino}-4-phenyl-butyric acid] | 9.06
O=C(O)CC(Cc1ccccc1)NC(=O)c1csc(-c2ccc(Cl)cc2)n1 (centres unmarked) [Example 127, 3-{[2-(4-Chloro-phenyl)-thiazole-4-carbonyl]-amino}-4-phenyl-butyric acid] | 12.6
Cc1ccccc1-c1nc(C(=O)NC(CC(=O)O)Cc2ccccc2)cs1 (centres unmarked) [Example 133, 4-Phenyl-3-[(2-o-tolyl-thiazole-4-carbonyl)-amino]-butyric acid] | 3.37
O=C(O)CC(Cc1ccccc1)NC(=O)c1csc(-c2ccccc2)n1 (centres unmarked) [Example 134, 4-Phenyl-3-[(2-phenyl-thiazole-4-carbonyl)-amino]-butyric acid] | 3.42
O=C(O)CC(Cc1ccccc1)NC(=O)c1csc(-c2ccc(C(F)(F)F)cc2)n1 (centres unmarked) [Example 135, 4-Phenyl-3-{[2-(4-trifluoromethyl-phenyl)-thiazole-4-carbonyl]-amino}-butyric acid] | 22.2
Cc1ccccc1[C@H](CC(=O)O)NC(=O)c1nc(-c2ccccc2)cs1 [Example 136, (S)-3-[(4-Phenyl-thiazole-2-carbonyl)-amino]-3-o-tolyl-propionic acid] | 0.0889

Other lines, results leading:

IC50 [µM] | SMILES
3.42 | O=C(O)CC(NC(=O)c1csc(-c2cccc(Cl)c2)n1)C1CCCCC1 (centres unmarked) [Example 124, 3-{[2-(3-Chloro-phenyl)-thiazole-4-carbonyl]-amino}-3-cyclohexyl-propionic acid]
3.94 | O=C(O)CC(NC(=O)c1csc(-c2ccc(Cl)cc2)n1)C1CCCCC1 (centres unmarked) [Example 126, 3-{[2-(4-Chloro-phenyl)-thiazole-4-carbonyl]-amino}-3-cyclohexyl-propionic acid]
0.81 | Cc1ccccc1-c1nc(C(=O)NC(CC(=O)O)C2CCCCC2)cs1 (centres unmarked) [Example 128, 3-Cyclohexyl-3-[(2-o-tolyl-thiazole-4-carbonyl)-amino]-propionic acid]
1.12 | O=C(O)CC(NC(=O)c1csc(-c2ccccc2)n1)C1CCCCC1 (centres unmarked) [Example 129, 3-Cyclohexyl-3-[(2-phenyl-thiazole-4-carbonyl)-amino]-propionic acid]
1.1 | O=C(O)CC(NC(=O)c1csc(-c2cccc(Cl)c2Cl)n1)C1CCCCC1 (centres unmarked) [Example 130, 3-Cyclohexyl-3-{[2-(2,3-dichloro-phenyl)-thiazole-4-carbonyl]-amino}-propionic acid]
1.43 | O=C(O)CC(NC(=O)c1csc(-c2ccccc2F)n1)C1CCCCC1 (centres unmarked) [Example 131, 3-Cyclohexyl-3-{[2-(2-fluoro-phenyl)-thiazole-4-carbonyl]-amino}-propionic acid]
11.2 | O=C(O)CC(NC(=O)c1csc(-c2ccc(C(F)(F)F)cc2)n1)C1CCCCC1 (centres unmarked) [Example 132, 3-Cyclohexyl-3-{[2-(4-trifluoromethyl-phenyl)-thiazole-4-carbonyl]-amino}-propionic acid]
